Experimental data as given in PubChem BioAssay (NCI).
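Five compound concentrations were applied to cells in 96-well plates for 48 hours; endpoints were derived by simple linear interpolation of the resulting dose-response curve. GI50 marks 50% less growth. TGI marks complete inhibition of growth.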

Key:
Test in all cases: DTP human tumour cell line panel, 48 h
[1] = system: ACHN renal
[2] = system: COLO 205 colon
[3] = system: DU-145 prostate
[4] = system: EKVX NSCLC
[5] = system: HCC-2998 colon
[6] = system: HCT-116 colon
[7] = system: HT29 colon
[8] = system: K-562 leukemia
[9] = system: MCF7 breast
[10] = system: MOLT-4 leukemia
[11] = system: NCI-H522 lung
[12] = system: OVCAR-5 ovarian
[13] = system: RPMI-8226 leukemia
[14] = system: RXF 393 renal
[15] = system: SF-539 CNS
[16] = system: SK-MEL-5 melanoma
[17] = system: SNB-19 CNS
[18] = system: T-47D breast

Compound | TGI [1] | TGI [2] | TGI [3] | TGI [4] | TGI [5] | TGI [6] | TGI [7] | TGI [8] | TGI [9] | TGI [10] | TGI [11] | TGI [12] | TGI [13] | TGI [14] | TGI [15] | TGI [16] | TGI [17] | TGI [18] | GI50 [3] | GI50 [6]
CC(C)C/C=C/C1=NN(c2cccc(S(=O)(=O)O)c2)C2(C1)SCC(=O)N2c1nc2ccccc2s1 (configuration not stated) | > 100 µM | > 100 µM | > 100 µM | > 100 µM | > 100 µM | > 100 µM | > 100 µM | > 100 µM | > 100 µM | > 100 µM | 60.2 µM | > 100 µM | 49.6 µM | > 100 µM | > 100 µM | > 100 µM | > 100 µM | 47.2 µM | – | –
CCOc1cc2c(cc1O)/C(=N/NS(=O)(=O)c1ccc(C)cc1)C[C@@H]1[C@@H]2CC[C@]2(C)[C@@H](O)CC[C@@H]12 | 81.2 µM | 17.4 µM | > 100 µM | > 100 µM | 15.1 µM | > 100 µM | > 100 µM | > 100 µM | > 100 µM | 7.04 µM | > 100 µM | 46.4 µM | 16 µM | > 100 µM | 65.6 µM | > 100 µM | > 100 µM | > 100 µM | 14.9 µM | 6.67 µM
O=C1Nc2ccccc2/C1=C/c1c(Cl)[nH]c2ccc(O)cc12 | 31.4 µM | 6.4 µM | 6.69 µM | 22.5 µM | 24.2 µM | 19.4 µM | 12.1 µM | 17.1 µM | 14.8 µM | 40.1 µM | 6.74 µM | 17.1 µM | 14.1 µM | 9.02 µM | 2.16 µM | 9.54 µM | > 58.8 µM | 28.3 µM | – | –
COC(C)(C)CCc1[nH]c2ccccc2c1CC(=O)NCCc1cncn1C | > 100 µM | > 100 µM | > 100 µM | > 100 µM | > 100 µM | > 100 µM | > 100 µM | > 100 µM | > 100 µM | > 100 µM | > 100 µM | > 100 µM | > 100 µM | > 100 µM | > 100 µM | > 100 µM | > 100 µM | > 100 µM | – | –
COc1cccc(C2SCC(=O)N2c2ccc(-n3c(-c4ccccc4)nc4ccccc4c3=O)cc2)c1OC (configuration not stated) | > 100 µM | > 100 µM | > 100 µM | > 100 µM | > 100 µM | > 100 µM | > 100 µM | > 100 µM | > 100 µM | > 100 µM | > 100 µM | > 100 µM | > 100 µM | > 100 µM | > 100 µM | > 100 µM | > 100 µM | > 100 µM | – | –
